This is an account of results in publication PMC5531749 (Psychopharmacology, 2016).

Read-outs that look alike come from different tables or passages of the source.

For assay [1], the system named is visceral insular cortex (VIC) of rats. The following applies: intra-VIC, cited from earlier work.
In assay [2] the test system is male Sprague-Dawley rats. Particulars: cited from earlier work.
In assay [3] the test system is AEA and 2-AG in rat whole brain tissue. Particulars: ref Limebeer et al. 2014; cited from earlier work.
For assay [4], the system named is 2AG and AEA levels in nucleus accumbens. Particulars: localized brain area; ref Wiskerke et al. (2012); cited from earlier work.
Another assay has as its system rat MAGL. The following applies: ref Limebeer et al. 2014; cited from earlier work.
For assay [5], the system named is male Sprague-Dawley rats. Particulars: cited from earlier work. This is another data set of the same source.
In assay [6] the test system is 2-AG and AEA in VIC tissue. The following applies: systemic and intra-VIC administration; ref Sticht et al. (2015); cited from earlier work.
Assay [7] relates to male Sprague-Dawley rats. Format: in vivo, rat. Particulars: SR141716 2.5 mg/kg 90 min after AM4301 20 mg/kg.
In assay [8] the test system is male Sprague-Dawley rats. Description: Anticipatory nausea: contextually elicited conditioned gaping. Format: in vivo, rat.
The mark [9] stands for this setting: 10–20 mg/kg systemic, CB1 receptor-dependent, ref Parker et al. 2014.

`CCCCCCC(C)(C)c1cc(O)c2c(c1)OC(C)(C)[C@@H]1CC=C(CO)C[C@@H]21` [HU-210]: the “acute nausea after administration into the VIC” value in [1] (ref Limebeer et al. 2012) was “suppressed”.
For the compound `O=C(Oc1ccc([N+](=O)[O-])cc1)N1CCN(Cc2cccc(Oc3ccccc3)c2)CC1` [JZL195], in the assay on male Sprague-Dawley rats [2] (10 mg/kg, ref Limebeer et al. 2014), the “anticipatory nausea, dual FAAH/MAGL inhibitor” value is listed as “suppresses”. Moreover, the “AEA in rat whole brain tissue” value in assay [3] is reported as “elevated”. In assay [4], the “elevation of 2AG level in nucleus accumbens” value was “about 50%” and the “elevation of AEA level in nucleus accumbens” value is reported as roughly 100%. In addition, the “blocking the activities of rat MAGL in whole brain analysis” value with rat MAGL was “ineffective”.
In the case of `NC(=O)c1cccc(-c2cccc(OC(=O)NC3CCCCC3)c2)c1` [URB597, cyclohexyl carbamic acid 3′-carbamoyl-biphenyl-3-yl ester], the “acute nausea, systemic FAAH inhibitor” value in the assay on male Sprague-Dawley rats [5] (0.3 mg/kg systemic, ref Cross-Mellor et al. 2007) is recorded as “suppresses”. In addition, the “anticipatory nausea, systemic FAAH inhibitor” value in the assay on male Sprague-Dawley rats [2] (0.3 mg/kg systemic, ref Rock et al. 2008) is reported as “suppresses”.
`O=C(ON1C(=O)CCC1=O)N1CCN(C(c2ccc(Cl)cc2)c2ccc(Cl)cc2)CC1` [MJN110]: the “acute nausea, systemic MAGL inhibitor” value with male Sprague-Dawley rats [5] (setting [9]) is listed as “suppresses”. For the same compound, the “acute nausea after administration into the VIC” value in assay [1] (ref Sticht et al. 2012b) is given as “suppressed”. Besides, the “anticipatory nausea, systemic MAGL inhibitor” value in the assay on male Sprague-Dawley rats [2] (setting [9]) is recorded as “suppresses”. Besides, the “2-AG in the VIC” value in assay [6] is “elevates”.
As to `Cc1c(C(=O)NN2CCCCC2)nn(-c2ccc(Cl)cc2Cl)c1-c1ccc(Cl)cc1` [SR141716], the “reversal of AM4301 suppression of acute nausea by CB1 antagonist” value in the assay with male Sprague-Dawley rats [7] is recorded as “reversed the suppressive effect of AM4301”. For the same compound, in the assay on male Sprague-Dawley rats [8] (SR 2.5 mg/kg 90 min after AM4302 20 mg/kg), the “reversal of AM4302 suppression of anticipatory nausea by CB1 antagonist” value was “reversed”. Also, in the assay on male Sprague-Dawley rats [8] (VEH-SR 2.5 mg/kg), the “effect of CB1 antagonist on its own on contextually elicited gaping” value was “did not have an effect on its own”.
